Assay results: patent US9803187B2 (priority 2014, dated 2017)
pIC50, pKi: −log10 of the molar value. Like-named read-outs stand apart in the source and are kept apart here.

Columns and labels:
AsbB = AsbB (Bacillus anthracis, UniProt Q81RQ8); experiment: biochemical; format: biochemical
SbnE [1] = target: T1, SbnE (Staphylococcus aureus, UniProt Q2G1M9); experiment: biochemical
[2] = system: B. anthracis (Sterne 34F2); experiment: microbe, parasite or virus in culture; format: cell-based; conditions: for pIC50: Bacillus anthracis
SbnE [3] = target: T1, SbnE; experiment: biochemical; format: biochemical, S. aureus; conditions: for pKi: inhibition constant (Ki) SbnE
MRSA (USA 300) = experiment: microbe, parasite or virus in culture; format: cell-based, methicillin-resistant Staphylococcus aureus; conditions: Staphylococcus aureus
AsbA [4] = target: T2, AsbA (Bacillus anthracis, UniProt A0A0F7RJ52); experiment: biochemical; format: biochemical, B. anthracis; conditions: for pKi: inhibition constant (Ki) AsbA
S. aureus (Newman) = experiment: microbe, parasite or virus in culture; format: cell-based; conditions: for pIC50: Staphylococcus aureus, NEWMAN, 8 h
S. typhimurium = experiment: microbe, parasite or virus in culture; format: cell-based; conditions: Salmonella enterica
E. coli (MC 1061) = experiment: microbe, parasite or virus in culture; format: cell-based; conditions: Escherichia coli
AsbA [5] = target: T2, AsbA; experiment: biochemical
S. flexneri (BS103) = experiment: microbe, parasite or virus in culture; format: cell-based; conditions: Shigella flexneri

T2 sequence (A0A0F7RJ52 whole entry, looked up): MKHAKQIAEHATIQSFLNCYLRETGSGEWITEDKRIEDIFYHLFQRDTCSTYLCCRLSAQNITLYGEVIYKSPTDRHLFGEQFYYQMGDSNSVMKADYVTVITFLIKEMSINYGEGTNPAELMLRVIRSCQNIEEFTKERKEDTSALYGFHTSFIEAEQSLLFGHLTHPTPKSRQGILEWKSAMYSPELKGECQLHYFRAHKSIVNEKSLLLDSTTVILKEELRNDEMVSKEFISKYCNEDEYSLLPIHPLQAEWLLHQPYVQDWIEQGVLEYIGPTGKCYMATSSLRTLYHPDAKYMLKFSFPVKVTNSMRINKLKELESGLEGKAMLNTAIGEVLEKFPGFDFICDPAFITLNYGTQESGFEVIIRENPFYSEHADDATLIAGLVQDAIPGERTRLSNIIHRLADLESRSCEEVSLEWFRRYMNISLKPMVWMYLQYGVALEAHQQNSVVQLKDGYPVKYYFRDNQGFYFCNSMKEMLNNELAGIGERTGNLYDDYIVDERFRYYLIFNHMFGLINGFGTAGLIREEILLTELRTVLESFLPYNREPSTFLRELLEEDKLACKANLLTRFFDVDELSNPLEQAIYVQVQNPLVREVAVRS
T1 sequence (Q2G1M9 whole entry): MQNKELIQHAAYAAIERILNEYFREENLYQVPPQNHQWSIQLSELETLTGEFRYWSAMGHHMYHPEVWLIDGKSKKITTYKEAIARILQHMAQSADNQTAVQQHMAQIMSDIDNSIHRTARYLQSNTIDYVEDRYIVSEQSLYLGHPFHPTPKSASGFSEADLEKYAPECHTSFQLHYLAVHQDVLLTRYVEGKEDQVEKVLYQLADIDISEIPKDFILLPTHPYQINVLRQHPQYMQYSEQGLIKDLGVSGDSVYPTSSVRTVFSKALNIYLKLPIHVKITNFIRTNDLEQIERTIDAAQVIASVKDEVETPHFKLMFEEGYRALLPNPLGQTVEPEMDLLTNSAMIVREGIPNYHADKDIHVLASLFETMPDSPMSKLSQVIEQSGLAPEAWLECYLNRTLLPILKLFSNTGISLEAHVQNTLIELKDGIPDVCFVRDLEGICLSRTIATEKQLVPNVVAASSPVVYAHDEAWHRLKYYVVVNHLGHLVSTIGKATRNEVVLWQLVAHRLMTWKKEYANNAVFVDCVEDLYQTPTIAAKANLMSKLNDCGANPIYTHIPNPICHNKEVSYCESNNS
AsbB, sequence (Q81RQ8 whole entry, looked up): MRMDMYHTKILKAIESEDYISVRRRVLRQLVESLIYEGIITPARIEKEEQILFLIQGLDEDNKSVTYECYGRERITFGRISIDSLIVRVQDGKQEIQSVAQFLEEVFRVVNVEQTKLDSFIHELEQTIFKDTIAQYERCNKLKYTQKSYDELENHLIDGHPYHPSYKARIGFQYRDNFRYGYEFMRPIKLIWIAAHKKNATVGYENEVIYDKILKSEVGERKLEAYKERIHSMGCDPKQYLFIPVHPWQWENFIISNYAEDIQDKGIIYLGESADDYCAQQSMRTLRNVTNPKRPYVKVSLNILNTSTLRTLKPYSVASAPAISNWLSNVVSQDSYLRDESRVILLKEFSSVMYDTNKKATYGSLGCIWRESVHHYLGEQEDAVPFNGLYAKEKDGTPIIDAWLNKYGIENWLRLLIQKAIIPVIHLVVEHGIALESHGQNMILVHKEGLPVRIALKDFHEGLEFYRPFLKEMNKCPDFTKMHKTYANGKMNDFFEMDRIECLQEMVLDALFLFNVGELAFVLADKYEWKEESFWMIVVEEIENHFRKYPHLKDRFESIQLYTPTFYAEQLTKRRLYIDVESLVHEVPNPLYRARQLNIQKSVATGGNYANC

CCC(=O)[C@@H](C)C[C@@H](C)C[C@@H](C)CC[C@H](O)C[C@H](O)[C@H](CC(C)C)[C@H](O)c1cc(O)cc(O)c1 [BmcA, Baulamycin A]
pIC50 (AsbB): < 3.00
inhibition against AsbB (in words) (AsbB): negligible
pIC50 (SbnE [1]): 5.32
pIC50 ([2]; read-out: IDM IC50): 3.96
pIC50 ([2]; read-out: IRM IC50): 3.92
mechanism of inhibition of SbnE (SbnE [3]): reversible, competitive
pKi (SbnE [3]; ATP): 3.17
pKi (SbnE [3]; citric acid): 4.30
pKi (SbnE [3]; polyamine substrate): 3.68
pIC50 (MRSA (USA 300); read-out: IDM IC50): 3.89
pIC50 (MRSA (USA 300); read-out: IRM IC50): 3.89
mechanism of inhibition of AsbA (AsbA [4]): reversible, competitive
pKi (AsbA [4]; ATP): 3.64
pKi (AsbA [4]; citric acid): 3.96
pKi (AsbA [4]; polyamine substrate): 3.77
pIC50 (S. aureus (Newman); read-out: IDM IC50): 4.16
pIC50 (S. aureus (Newman); read-out: IRM IC50): 4.07
pIC50 (S. typhimurium; read-out: IC50, iron-depleted conditions): < 3.00
pIC50 (S. typhimurium; read-out: IC50, iron-rich conditions): < 3.00
pIC50 (S. typhimurium; read-out: IDM IC50): < 3.00
pIC50 (S. typhimurium; read-out: IRM IC50): < 3.00
pIC50 (E. coli (MC 1061); read-out: IDM IC50): 5.38
pIC50 (E. coli (MC 1061); read-out: IRM IC50): 3.82
pIC50 (AsbA [5]): 3.74
pIC50 (S. flexneri (BS103); read-out: IDM IC50): 4.70
pIC50 (S. flexneri (BS103); read-out: IRM IC50): 4.34

CC(=O)[C@@H](C)C[C@@H](C)C[C@@H](C)CC[C@H](O)C[C@H](O)[C@H](CC(C)C)[C@H](O)c1cc(O)cc(O)c1 [BmcB, Baulamycin B]
pIC50 (AsbB): < 3.00
inhibition against AsbB (in words) (AsbB): negligible
pIC50 (SbnE [1]): 4.72
potency against B. anthracis (Sterne 34F2) compared with BmcA (in words) [2]: significantly less potent
potency against S. aureus (Newman) compared with BmcA (in words) (S. aureus (Newman)): significantly less potent
pIC50 (AsbA [5]): 3.70
